Consider ten compounds from patent US20240376121A1, “COMPOUNDS AND USES THEREOF” (Foghorn Therapeutics Inc., priority 2021, published 2024).

The structures appear in SMILES notation. Bounds are passed on as bounds.

Test [1] deals with T1, HiBit-BRG1 fusion protein (Homo sapiens, UniProt P51532).
T1 construct: expressed in transfected cells
The test can be described thus: HiBiT-BRG1 cell-based degradation assay (Nano-Glo HiBiT Lytic Detection). Conditions: stable HeLa cell line expressing HiBit-BRG1 and LgBit, 24 h incubation; for Dmax: top dose 30 μM, read-out: BRG1 HiBit Degradation Maximum (%); for DC50: read-out: BRMG1 HiBit Degradation IC50. The method, boiled down:
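HeLa cells stably expressing HiBiT-BRG1 and LgBiT treated 24 h with 10-point 3-fold dilutions (top 30 μM, duplicate). Luminescence read after Nano-Glo HiBiT lytic reagent; % degradation relative to DMSO (high control) and 2 μM reference BRM/BRG1 degrader (low control).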

In a further test the target is T2, HiBit-BRM fusion protein (Homo sapiens, UniProt P51531).
T2 construct: expressed in transfected cells
Kind of test: HiBiT-BRM cell-based degradation assay (Nano-Glo HiBiT Lytic Detection). The settings on record: stable HeLa cell line expressing HiBiT-BRM, 24 h incubation; for BRM HiBit Degradation Maximum (%): top dose 30 μM; for DC50: read-out: BRM HiBit Degradation IC50. In short, it runs like this:
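Luminescence from reconstituted NanoBiT luciferase in lysed HeLa HiBiT-BRM cells served as the measure of remaining BRM after 24 h treatment. Compounds were tested from 30 μM final downward in 3-fold steps. DMSO and 2 μM of a standard BRM/BRG1 degrader defined the scale limits.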
In general terms: With HiBiT, luminescence reflects the tagged protein that the partner subunit can reach.

T1 sequence (P51532 whole entry, the tested form may be a part): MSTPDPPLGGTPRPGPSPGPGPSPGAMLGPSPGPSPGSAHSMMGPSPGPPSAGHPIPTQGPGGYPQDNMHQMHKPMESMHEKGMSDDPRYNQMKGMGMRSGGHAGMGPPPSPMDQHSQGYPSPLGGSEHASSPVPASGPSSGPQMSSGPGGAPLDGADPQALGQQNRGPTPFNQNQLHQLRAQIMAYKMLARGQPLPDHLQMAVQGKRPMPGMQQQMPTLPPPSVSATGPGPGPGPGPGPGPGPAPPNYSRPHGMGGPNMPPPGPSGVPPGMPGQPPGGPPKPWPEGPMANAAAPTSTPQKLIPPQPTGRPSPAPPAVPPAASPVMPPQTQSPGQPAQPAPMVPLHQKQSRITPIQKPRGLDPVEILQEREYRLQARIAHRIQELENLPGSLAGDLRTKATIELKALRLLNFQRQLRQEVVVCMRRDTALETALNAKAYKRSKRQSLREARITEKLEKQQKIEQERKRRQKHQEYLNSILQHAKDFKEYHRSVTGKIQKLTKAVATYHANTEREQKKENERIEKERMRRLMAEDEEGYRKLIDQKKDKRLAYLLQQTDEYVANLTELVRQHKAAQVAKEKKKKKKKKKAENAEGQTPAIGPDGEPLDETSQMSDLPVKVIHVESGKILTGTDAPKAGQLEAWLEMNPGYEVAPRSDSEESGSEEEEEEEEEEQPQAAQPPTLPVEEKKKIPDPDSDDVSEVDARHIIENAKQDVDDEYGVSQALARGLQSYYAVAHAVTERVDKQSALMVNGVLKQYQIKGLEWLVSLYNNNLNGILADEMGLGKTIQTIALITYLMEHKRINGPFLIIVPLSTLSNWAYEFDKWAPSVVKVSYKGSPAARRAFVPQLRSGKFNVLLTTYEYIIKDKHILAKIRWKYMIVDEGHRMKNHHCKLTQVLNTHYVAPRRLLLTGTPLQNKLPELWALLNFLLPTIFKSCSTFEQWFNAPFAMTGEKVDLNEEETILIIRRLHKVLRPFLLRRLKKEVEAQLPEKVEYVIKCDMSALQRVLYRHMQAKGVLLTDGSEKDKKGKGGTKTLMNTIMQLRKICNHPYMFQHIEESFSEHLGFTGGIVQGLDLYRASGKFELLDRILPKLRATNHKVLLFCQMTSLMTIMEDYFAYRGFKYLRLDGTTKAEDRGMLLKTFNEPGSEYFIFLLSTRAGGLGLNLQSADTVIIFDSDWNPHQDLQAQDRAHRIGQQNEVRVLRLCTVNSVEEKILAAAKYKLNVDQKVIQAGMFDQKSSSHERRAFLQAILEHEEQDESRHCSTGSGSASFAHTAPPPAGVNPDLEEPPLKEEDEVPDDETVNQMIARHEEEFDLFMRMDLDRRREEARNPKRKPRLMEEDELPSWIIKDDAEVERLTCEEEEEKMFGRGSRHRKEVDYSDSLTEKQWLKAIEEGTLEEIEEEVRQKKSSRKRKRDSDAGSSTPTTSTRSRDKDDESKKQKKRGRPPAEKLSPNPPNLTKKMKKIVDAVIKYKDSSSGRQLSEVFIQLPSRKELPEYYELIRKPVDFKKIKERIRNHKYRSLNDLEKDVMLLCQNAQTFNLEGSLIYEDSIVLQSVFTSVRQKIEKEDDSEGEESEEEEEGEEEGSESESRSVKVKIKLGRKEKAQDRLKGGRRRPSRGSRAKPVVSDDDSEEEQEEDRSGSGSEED
T2 sequence (P51531 whole entry, the tested form may be a part): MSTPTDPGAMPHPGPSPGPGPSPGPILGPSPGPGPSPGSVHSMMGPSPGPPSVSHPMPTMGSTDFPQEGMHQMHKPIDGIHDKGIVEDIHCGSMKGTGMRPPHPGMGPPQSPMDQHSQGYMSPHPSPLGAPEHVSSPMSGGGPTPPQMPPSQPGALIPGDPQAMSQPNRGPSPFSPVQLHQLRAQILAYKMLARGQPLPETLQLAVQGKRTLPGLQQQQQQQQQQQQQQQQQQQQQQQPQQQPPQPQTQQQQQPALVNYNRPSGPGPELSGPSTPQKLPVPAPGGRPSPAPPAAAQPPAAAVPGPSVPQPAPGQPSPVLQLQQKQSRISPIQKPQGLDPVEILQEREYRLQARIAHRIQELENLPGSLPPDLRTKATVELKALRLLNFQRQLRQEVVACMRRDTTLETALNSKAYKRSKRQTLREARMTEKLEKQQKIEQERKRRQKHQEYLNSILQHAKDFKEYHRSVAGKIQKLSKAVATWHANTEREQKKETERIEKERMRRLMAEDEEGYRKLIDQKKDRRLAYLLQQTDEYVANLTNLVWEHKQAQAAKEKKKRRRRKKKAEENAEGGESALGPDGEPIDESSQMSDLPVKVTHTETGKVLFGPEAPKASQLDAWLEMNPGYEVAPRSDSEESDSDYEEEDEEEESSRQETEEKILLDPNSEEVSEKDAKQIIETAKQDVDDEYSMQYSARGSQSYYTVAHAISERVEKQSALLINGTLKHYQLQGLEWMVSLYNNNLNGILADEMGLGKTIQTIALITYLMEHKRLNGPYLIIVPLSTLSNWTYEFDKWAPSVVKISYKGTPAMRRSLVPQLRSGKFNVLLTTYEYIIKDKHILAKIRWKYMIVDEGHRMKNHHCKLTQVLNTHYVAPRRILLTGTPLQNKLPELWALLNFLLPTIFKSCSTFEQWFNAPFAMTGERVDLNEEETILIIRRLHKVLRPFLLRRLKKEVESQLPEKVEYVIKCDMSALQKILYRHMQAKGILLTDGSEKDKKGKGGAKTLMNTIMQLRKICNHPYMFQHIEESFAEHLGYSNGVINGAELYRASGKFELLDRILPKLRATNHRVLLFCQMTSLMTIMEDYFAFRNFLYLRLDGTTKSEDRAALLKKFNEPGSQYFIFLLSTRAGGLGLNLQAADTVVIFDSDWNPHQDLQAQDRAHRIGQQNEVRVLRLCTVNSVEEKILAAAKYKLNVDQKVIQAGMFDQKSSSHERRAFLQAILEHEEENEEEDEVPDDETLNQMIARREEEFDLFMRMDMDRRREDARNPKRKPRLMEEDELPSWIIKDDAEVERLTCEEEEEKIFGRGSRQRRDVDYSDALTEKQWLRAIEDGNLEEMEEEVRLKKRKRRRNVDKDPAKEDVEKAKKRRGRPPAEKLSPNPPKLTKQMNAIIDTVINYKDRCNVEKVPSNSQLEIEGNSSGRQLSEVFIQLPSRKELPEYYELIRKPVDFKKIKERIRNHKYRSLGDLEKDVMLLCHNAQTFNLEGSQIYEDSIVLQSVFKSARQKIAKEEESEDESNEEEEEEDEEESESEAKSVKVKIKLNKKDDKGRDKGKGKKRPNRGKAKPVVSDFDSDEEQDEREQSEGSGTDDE

As for `Cc1ncsc1-c1ccc([C@H](C)NC(=O)[C@@H]2C[C@@H](O)CN2C(=O)[C@@H](c2cc(OCCN3CCN(c4cc5nnc(-c6ccccc6O)cc5s4)CC3)no2)C(C)C)cc1` [Compound 49, (2S,4R)-4-hydroxy-1-((R)-2-(3-(2-(4-(3-(2-hydroxyphenyl)thieno[3,2-c]pyridazin-6-yl)piperazin-1-yl)ethoxy)isoxazol-5-yl)-3-methylbutanoyl)-N-((S)-1-(4-(4-methylthiazol-5-yl)phenyl)ethyl)pyrrolidine-2-carboxamide], in test [1], the Dmax was not below 75% and the DC50 was not below 10 nM. Further, on HiBit-BRM fusion protein, the “BRM HiBit Degradation Maximum (%)” value is listed as “A (“A” indicates maximum degradation ≥ 75%)” and the DC50 is less than 10 nM.

Regarding `Cc1ncsc1-c1ccc([C@H](C)NC(=O)[C@@H]2C[C@@H](O)CN2C(=O)[C@@H](c2cc(OCCN3CCC(N4CCC(c5sc6nnc(-c7ccccc7O)cc6c5C)CC4)CC3)no2)C(C)C)cc1` [Compound 107, (2S,4R)-4-hydroxy-1-((R)-2-(3-(2-(4-(3-(2-hydroxyphenyl)-5-methylthieno[2,3-c]pyridazin-6-yl)-[1,4′-bipiperidin]-1′-yl)ethoxy)isoxazol-5-yl)-3-methylbutanoyl)-N-((S)-1-(4-(4-methylthiazol-5-yl)phenyl)ethyl)pyrrolidine-2-carboxamide], in test [1], the Dmax is less than 50% and the DC50 was not below 1000 nM. At HiBit-BRM fusion protein, the “BRM HiBit Degradation Maximum (%)” value is listed as “A (“A” indicates maximum degradation ≥ 75%)” and the DC50 is not below 10 nM.

With `Cc1ncsc1-c1ccc(CNC(=O)[C@@H]2C[C@@H](O)CN2C(=O)[C@@H](NC(=O)C2(F)CC2)C(C)(C)C)c(OCCN2CCC(c3cc4nnc(-c5ccccc5O)cc4s3)CC2)c1` [Compound 77, (2S,4R)-1-((S)-2-(1-fluorocyclopropane-1-carboxamido)-3,3-dimethylbutanoyl)-4-hydroxy-N-(2-(2-(4-(3-(2-hydroxyphenyl)thieno[3,2-c]pyridazin-6-yl)piperidin-1-yl)ethoxy)-4-(4-methylthiazol-5-yl)benzyl)pyrrolidine-2-carboxamide], in test [1], the Dmax was less than 50% and the DC50 was not below 1000 nM. On HiBit-BRM fusion protein, the “BRM HiBit Degradation Maximum (%)” value is on record as “C (“C” indicates maximum degradation < 50%)” and the DC50 was not below 1000 nM.

`Cc1ncsc1-c1ccc([C@H](C)NC(=O)[C@@H]2C[C@@H](O)CN2C(=O)[C@@H](c2cc(N3CCC(C(=O)N4CCc5sc6nnc(-c7ccccc7O)cc6c5C4)CC3)no2)C(C)C)cc1` [Compound 11, (2S,4R)-4-hydroxy-1-((R)-2-(3-(4-(3-(2-hydroxyphenyl)-5,6,7,8-tetrahydropyrido[3′,4′:4,5]thieno[2,3-c]pyridazine-6-carbonyl)piperidin-1-yl)isoxazol-5-yl)-3-methylbutanoyl)-N—((S)-1-(4-(4-methylthiazol-5-yl)phenyl)ethyl)pyrrolidine-2-carboxamide]: in test [1], the Dmax is less than 50% and the DC50 was not below 1000 nM. For the same compound, at HiBit-BRM fusion protein, the “BRM HiBit Degradation Maximum (%)” value is “A (“A” indicates maximum degradation ≥ 75%)” and the DC50 was not below 100 nM.

As to `Cc1ncsc1-c1ccc([C@H](C)NC(=O)[C@@H]2C[C@@H](O)CN2C(=O)[C@@H](NC(=O)c2cnc(N3CCC(c4sc5nnc(-c6ccccc6O)cc5c4C)CC3)nc2)C(C)(C)C)cc1` [Compound 65, N-((S)-1-((2S,4R)-4-hydroxy-2-(((S)-1-(4-(4-methylthiazol-5-yl)phenyl)ethyl)carbamoyl)pyrrolidin-1-yl)-3,3-dimethyl-1-oxobutan-2-yl)-2-(4-(3-(2-hydroxyphenyl)-5-methylthieno[2,3-c]pyridazin-6-yl)piperidin-1-yl)pyrimidine-5-carboxamide], in test [1], the Dmax is less than 50% and the DC50 is not below 1000 nM. At HiBit-BRM fusion protein, the “BRM HiBit Degradation Maximum (%)” value is on record as “A (“A” indicates maximum degradation ≥ 75%)” and the DC50 is not below 10 nM.

Turning to `Cc1ncsc1-c1ccc([C@H](C)NC(=O)[C@@H]2C[C@@H](O)CN2C(=O)[C@@H](c2cc(O[C@H]3C[C@H](N4CCC(c5sc6nnc(-c7ccccc7O)cc6c5C)CC4)C3)no2)C(C)C)cc1` [Compound 59, (2S,4R)-4-hydroxy-1-((R)-2-(3-((1r,3R)-3-(4-(3-(2-hydroxyphenyl)-5-methylthieno[2,3-c]pyridazin-6-yl)piperidin-1-yl)cyclobutoxy)isoxazol-5-yl)-3-methylbutanoyl)-N-((S)-1-(4-(4-methylthiazol-5-yl)phenyl)ethyl)pyrrolidine-2-carboxamide], in test [1], the Dmax is less than 50% and the DC50 is not below 1000 nM. In addition, on HiBit-BRM fusion protein, the “BRM HiBit Degradation Maximum (%)” value is reported as “A (“A” indicates maximum degradation ≥ 75%)” and the DC50 was not below 1000 nM.

Turning to `Cc1ncsc1-c1ccc([C@H](C)NC(=O)[C@@H]2C[C@@H](O)CN2C(=O)[C@@H](c2cc(OCCN3CC(c4csc5nnc(-c6ccccc6O)cc45)C3)no2)C(C)C)cc1` [Compound 102, (2S,4R)-4-hydroxy-1-((R)-2-(3-(2-(3-(3-(2-hydroxyphenyl)thieno[2,3-c]pyridazin-5-yl)azetidin-1-yl)ethoxy)isoxazol-5-yl)-3-methylbutanoyl)-N-((S)-1-(4-(4-methylthiazol-5-yl)phenyl)ethyl)pyrrolidine-2-carboxamide], in test [1], the Dmax is less than 50% and the DC50 was not below 1000 nM. Moreover, at HiBit-BRM fusion protein, the “BRM HiBit Degradation Maximum (%)” value is given as “C (“C” indicates maximum degradation < 50%)” and the DC50 was not below 1000 nM.

Consider `Cc1ncsc1-c1ccc([C@H](C)NC(=O)[C@@H]2C[C@@H](O)CN2C(=O)[C@@H](c2cc(N3C[C@@H]4C[C@H]3CN4C(=O)[C@@H]3CCc4sc5nnc(-c6ccccc6O)cc5c4C3)no2)C(C)C)cc1` [Compound 44, (2S,4R)-4-hydroxy-1-((R)-2-(3-((1S,4S)-5-((R)-3-(2-hydroxyphenyl)-5,6,7,8-tetrahydrobenzo[4,5]thieno[2,3-c]pyridazine-6-carbonyl)-2,5-diazabicyclo[2.2.1]heptan-2-yl)isoxazol-5-yl)-3-methylbutanoyl)-N-((S)-1-(4-(4-methylthiazol-5-yl)phenyl)ethyl)pyrrolidine-2-carboxamide], for which, in test [1], the Dmax is less than 50% and the DC50 is not below 1000 nM. For the same compound, on HiBit-BRM fusion protein, the “BRM HiBit Degradation Maximum (%)” value is “B (“B” indicates maximum degradation ≥ 50%)” and the DC50 was not below 100 nM.

As to `Cc1ncsc1-c1ccc(CNC(=O)[C@@H]2C[C@@H](O)CN2C(=O)[C@@H](NC(=O)C2(F)CC2)C(C)(C)C)c(OCC(=O)N2CCC(c3sc4nnc(-c5ccccc5O)cc4c3C)CC2)c1` [Compound 82, (2S,4R)-1-((S)-2-(1-fluorocyclopropane-1-carboxamido)-3,3-dimethylbutanoyl)-4-hydroxy-N-(2-(2-(4-(3-(2-hydroxyphenyl)-5-methylthieno[2,3-c]pyridazin-6-yl)piperidin-1-yl)-2-oxoethoxy)-4-(4-methylthiazol-5-yl)benzyl)pyrrolidine-2-carboxamide], in test [1], the Dmax is less than 50% and the DC50 was not below 1000 nM. At HiBit-BRM fusion protein, the “BRM HiBit Degradation Maximum (%)” value is “C (“C” indicates maximum degradation < 50%)” and the DC50 was not below 1000 nM.

Regarding `Cc1ncsc1-c1ccc([C@H](C)NC(=O)[C@@H]2C[C@@H](O)CN2C(=O)[C@@H](c2cc(OCCN3C[C@H]4C[C@@H](C3)[C@@H]4c3sc4nnc(-c5ccccc5O)cc4c3C)no2)C(C)C)cc1` [Compound 63, (2S,4R)-4-hydroxy-1-((R)-2-(3-(2-((1R,5S,6R)-6-(3-(2-hydroxyphenyl)-5-methylthieno[2,3-c]pyridazin-6-yl)-3-azabicyclo[3.1.1]heptan-3-yl)ethoxy)isoxazol-5-yl)-3-methylbutanoyl)-N-((S)-1-(4-(4-methylthiazol-5-yl)phenyl)ethyl)pyrrolidine-2-carboxamide], in test [1], the Dmax was less than 50% and the DC50 was not below 1000 nM. On HiBit-BRM fusion protein, the “BRM HiBit Degradation Maximum (%)” value is reported as “A (“A” indicates maximum degradation ≥ 75%)” and the DC50 is not below 10 nM.
